Entries after “also recorded” stand apart in the source; their conditions may differ. Each block holds one compound with its values, some of them ahead of it.
What was measured:
[1] = system: human M1-M4; experiment: human mAChR selectivity, functional assay at hM1-M4; type: cell-based; settings: for IC50: read-out: hM1-M4 IC50, each of M1, M2, M3, M4
[2] = molecular target: T1, human M5 (Homo sapiens, UniProt P08912); experiment: functional calcium mobilization assay in CHO cells stably expressing human M5; type: cell-based
T1 sequence (P08912 1-532): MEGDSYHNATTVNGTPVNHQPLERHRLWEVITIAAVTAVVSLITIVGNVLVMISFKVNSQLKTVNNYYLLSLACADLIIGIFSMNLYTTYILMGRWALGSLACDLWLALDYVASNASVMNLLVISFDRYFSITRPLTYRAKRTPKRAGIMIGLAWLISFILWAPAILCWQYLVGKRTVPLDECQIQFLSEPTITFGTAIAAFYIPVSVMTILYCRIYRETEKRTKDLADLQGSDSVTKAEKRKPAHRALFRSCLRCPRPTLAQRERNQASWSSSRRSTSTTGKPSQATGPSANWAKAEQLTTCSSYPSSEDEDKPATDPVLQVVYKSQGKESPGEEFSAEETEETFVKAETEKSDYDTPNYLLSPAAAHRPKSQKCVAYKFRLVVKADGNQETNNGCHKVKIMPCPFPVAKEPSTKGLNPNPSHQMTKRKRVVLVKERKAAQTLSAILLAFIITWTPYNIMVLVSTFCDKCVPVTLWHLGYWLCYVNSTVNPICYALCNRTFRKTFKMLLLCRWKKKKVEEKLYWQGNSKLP

[3] = molecular target: T2, human M1 (Homo sapiens, UniProt P11229); experiment: HTS counter-screen in CHO cells expressing human M1; type: cell-based; settings: confirmed HTS hit sample
T2 sequence (P11229 1-460): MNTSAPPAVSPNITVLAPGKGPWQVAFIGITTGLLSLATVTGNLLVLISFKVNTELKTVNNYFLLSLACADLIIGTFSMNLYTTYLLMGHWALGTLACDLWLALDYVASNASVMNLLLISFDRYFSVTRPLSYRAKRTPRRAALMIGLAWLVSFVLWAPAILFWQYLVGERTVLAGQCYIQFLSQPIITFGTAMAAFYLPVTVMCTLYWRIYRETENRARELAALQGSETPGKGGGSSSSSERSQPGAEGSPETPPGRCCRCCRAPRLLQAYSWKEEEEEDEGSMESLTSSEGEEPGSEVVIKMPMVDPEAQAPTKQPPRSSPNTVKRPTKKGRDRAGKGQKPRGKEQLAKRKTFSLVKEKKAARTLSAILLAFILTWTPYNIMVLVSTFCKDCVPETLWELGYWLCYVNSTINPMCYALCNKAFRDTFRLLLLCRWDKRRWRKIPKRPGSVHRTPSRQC

[4] = molecular target: T3, human M4 (Homo sapiens, UniProt P08173); experiment: HTS counter-screen in CHO cells expressing human M4; type: cell-based; settings: confirmed HTS hit sample
T3 sequence (P08173 1-479): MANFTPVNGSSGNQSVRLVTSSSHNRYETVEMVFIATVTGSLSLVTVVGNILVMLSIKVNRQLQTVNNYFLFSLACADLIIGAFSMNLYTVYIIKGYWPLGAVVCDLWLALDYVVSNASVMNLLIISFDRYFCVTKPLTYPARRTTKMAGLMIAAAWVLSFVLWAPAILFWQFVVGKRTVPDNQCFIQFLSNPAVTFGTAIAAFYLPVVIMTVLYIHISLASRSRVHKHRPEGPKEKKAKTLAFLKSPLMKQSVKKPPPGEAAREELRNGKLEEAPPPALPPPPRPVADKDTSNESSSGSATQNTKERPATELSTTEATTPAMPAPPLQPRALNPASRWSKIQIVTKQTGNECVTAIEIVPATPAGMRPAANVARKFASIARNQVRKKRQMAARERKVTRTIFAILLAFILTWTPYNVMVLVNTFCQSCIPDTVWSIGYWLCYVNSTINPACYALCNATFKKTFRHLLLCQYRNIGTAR

[5] = system: rat M1-M4; experiment: rat mAChR selectivity, functional assay at rM1-M4; type: cell-based
[6] = molecular target: T4, hM5 (Homo sapiens, UniProt P08912); experiment: [3H]-NMS competition binding in membranes prepared from hM5 cells; settings: N=3; compared to atropine
T4 sequence (P08912 1-532): T1 sequence (P08912 1-532)

[7] = molecular target: T4, hM5; experiment: [3H]-NMS dissociation kinetics with hM5 cell membranes; type: binding
[8] = hepatic microsomal intrinsic clearance, rat; type: in vitro ADME; settings: Sprague-Dawley, liver microsomes
[9] = hepatic microsomal intrinsic clearance, cynomolgus monkey; type: in vitro ADME
[10] = hepatic microsomal intrinsic clearance, human; type: in vitro ADME; settings: liver microsomes
[11] = IV pharmacokinetics in male cynomolgus monkey; type: in vivo; settings: plasma, 1 mg/kg
[12] = Eurofins radioligand binding panel; settings: panel of 68 targets
[13] = molecular target: CB1 (Homo sapiens, UniProt P21554); experiment: subsequent functional assay at CB1
CB1, sequence (P21554 whole entry, species assumed): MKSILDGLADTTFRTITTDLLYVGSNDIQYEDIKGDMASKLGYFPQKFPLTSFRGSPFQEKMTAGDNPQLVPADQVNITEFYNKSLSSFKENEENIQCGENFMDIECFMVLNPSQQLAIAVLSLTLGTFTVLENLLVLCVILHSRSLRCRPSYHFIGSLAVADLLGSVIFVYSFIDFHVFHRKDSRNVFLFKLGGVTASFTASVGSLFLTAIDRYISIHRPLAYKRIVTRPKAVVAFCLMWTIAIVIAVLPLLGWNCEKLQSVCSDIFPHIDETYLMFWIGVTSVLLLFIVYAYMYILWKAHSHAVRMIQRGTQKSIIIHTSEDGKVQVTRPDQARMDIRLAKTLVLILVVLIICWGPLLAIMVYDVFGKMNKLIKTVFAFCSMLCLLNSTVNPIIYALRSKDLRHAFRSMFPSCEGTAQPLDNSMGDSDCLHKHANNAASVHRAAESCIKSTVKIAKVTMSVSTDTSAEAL

IC50 [1]: > 30 µM
Compound: O=C(c1ccc(F)c(F)c1)N1CCN2C(=O)c3ccccc3C12c1ccccc1 (centres unmarked) [4g]

IC50 [1]: > 30 µM
Compound: O=C(c1ccc(F)c(F)c1)N1CCN2C(=O)c3ccccc3C12c1ccc(Cl)cc1 (centres unmarked) [5g]

IC50 [2]: > 10 µM | IC50 [1]: > 30 µM | activity on M1 [3]: inactive | activity on M4 [4]: inactive
Compound: O=C(c1ccc(F)cc1)N1CCN2C(=O)c3ccccc3C12c1ccccc1 (centres unmarked) [compound 1]

IC50 [1]: > 30 µM | IC50 ([5]; read-out: rM1-M4 IC50, each of rat M1, M2, M3, M4): > 30 µM | [3H]-NMS dissociation t1/2 ([7]; atropine (+8), N=3): 1.15 h | effect on the dissociation rate of [3H]-NMS ([7]; hM5 cell membranes): decreased the dissociation rate | CLint scaled at 1 µM [8]: 24 mL/min/kg | Predicted CLhep ([9]; from CLint in well-stirred model, uncorrected for fraction unbound in plasma): 14 mL/min/kg | CLint scaled ([9]; liver microsomes): 20 mL/min/kg | CLint scaled at 1 µM [10]: 2.6 mL/min/kg | clearance [11]: 3 mL/min/kg | number of targets with significant binding (>50% inhibition @10 μM) [12]: 1 | functional activity at CB1 [13]: no functional activity
Compound: O=C(c1ccc(F)c(F)c1)N1CCN2C(=O)c3ccccc3[C@@]12c1ccc(Cl)cc1 [compound 8, (S)-9b-(4-chlorophenyl)-1-(3,4-difluorobenzoyl)-2,3-dihydro-1H-imidazo[2,1-a]isoindol-5(9bH)-one]
activity at human M1-M4 [1]: inactive | activity at rat M1-M4 [5]: inactive | competition with [3H]-NMS for binding to hM5 [6]: no competition; also recorded: does not bind at the M5 orthosteric site

Source: paper PMC3876027 (Journal of medicinal chemistry, 2013)
